# Measurements as given in US20230092163A1, “COMPOUNDS AND COMPOSITIONS FOR TREATING CONDITIONS ASSOCIATED WITH STING ACTIVITY” (IFM Due, Inc., priority 2019, published 2023).
# Biological target: STING (Homo sapiens, UniProt Q86WV6, G230A/H232R/R293Q/R71H)
# Test: STING reporter assay: THP1-Dual KO-IFNAR2 cells stimulated with 2′3′cGAMP, luciferase reporter activity
# Assay type: cell-based
# Conditions: 15 μM 2′3′cGAMP, 24h, class symbols
# Summary of the method: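 THP1-Dual KO-IFNAR2 cells (2×10E6 cells/mL) treated with compounds at 0.0017-100 μM, then stimulated with 2′3′cGAMP (15 μM final) delivered by Lipofectamine 2000; 24 h at 37° C. Supernatant luciferase read by QUANTI-Luc Plus luminescence; EC50 from dose-response.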
# Sequence of STING (Q86WV6 whole entry R71H/G230A/H232R/R293Q): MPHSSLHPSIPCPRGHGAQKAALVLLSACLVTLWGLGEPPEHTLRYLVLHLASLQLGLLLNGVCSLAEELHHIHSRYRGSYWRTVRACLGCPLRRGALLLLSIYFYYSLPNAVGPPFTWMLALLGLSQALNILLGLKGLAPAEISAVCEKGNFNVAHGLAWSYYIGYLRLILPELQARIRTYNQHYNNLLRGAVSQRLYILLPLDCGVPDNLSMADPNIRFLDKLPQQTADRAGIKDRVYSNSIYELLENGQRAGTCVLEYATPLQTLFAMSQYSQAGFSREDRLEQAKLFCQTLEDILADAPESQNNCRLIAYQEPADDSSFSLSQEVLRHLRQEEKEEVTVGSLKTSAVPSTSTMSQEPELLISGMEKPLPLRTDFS
row,EC50 [µM],Compound
1,5 to 100,"CC(C)(C)OC(=O)N1Cc2cnc(Nc3ccc4cc[nH]c4c3)nc2C1 [Compound 418, tert-butyl 2-((1H-indol-6-yl)amino)-5H-pyrrolo[3,4-d]pyrimidine-6(7H)-carboxylate]"
2,5 to 100,"CC(C)c1cccc(Nc2ccc3cc[nH]c3c2)n1 [Compound 406, N-(6-isopropylpyridin-2-yl)-1H-indol-6-amine]"
3,5 to 100,Cc1ncccc1-n1cc(C#N)c2ccc(NC(=O)Nc3ccc(C(F)(F)F)cc3)cc21 [Compound 527]
4,0.2 to 1,FC(F)(F)c1cc(Cl)cc2nc(Nc3ccc4cc[nH]c4c3)ccc12 [Compound 563]
5,1 to 5,O=c1c(Nc2ccc(C(F)(F)F)cc2)c(Nc2ccc3[nH]ccc3c2)c1=O [Compound 619]
6,0.2 to 1,O=C(Nc1cc(Cl)c2cc[nH]c2c1)NC1CCC2(CCCCC2)CC1 [Compound 542]
7,1 to 5,"c1ccc(-c2ccc(Nc3ccc4cc[nH]c4c3)nc2)cc1 [Compound 424, N-(5-phenylpyridin-2-yl)-1H-indol-6-amine]"
8,5 to 100,"CC(C)(C)c1ccc(Nc2ccc3cc[nH]c3c2)nc1 [Compound 426, N-(5-(tert-butyl)pyridin-2-yl)-1H-indol-6-amine]"
9,1 to 5,O=C(Nc1cc(F)cc(C(F)(F)F)c1)Nc1cc(CCO)c2cc[nH]c2c1 [Compound 501]
10,5 to 100,"FC(F)(F)c1ccc2c(Cl)cc(Nc3ccc4cc[nH]c4c3)nc2c1 [Compound 562, 4-chloro-N-(1H-indol-6-yl)-7-(trifluoromethyl)quinolin-2-amine]"
11,0.2 to 1,"FC(F)(F)c1cc(Nc2ccc3cc[nH]c3c2)nc(Nc2ccc3cc[nH]c3c2)c1 [Compound 570, N2,N6-bis(1H-indol-6-yl)-4-(trifluoromethyl)pyridine-2,6-diamine]"
12,0.2 to 1,"FC(F)(F)c1nc(Nc2ccc3cc[nH]c3c2)ccc1Cl [Compound 405, N-(5-chloro-6-(trifluoromethyl)pyridin-2-yl)-1H-indol-6-amine]"
13,1 to 5,FC(F)(F)c1ccc(Nc2ccc3cc[nH]c3c2)nc1Cl [Compound 591]
14,5 to 100,"FC(F)(F)Oc1ccc(Nc2ccc3cc[nH]c3c2)nc1 [Compound 403, N-(5-(trifluoromethoxy)pyridin-2-yl)-1H-indol-6-amine]"

# Further lines, the compound ahead of its results:
row,Compound,EC50 [µM]
1,O=C(Nc1ccc2cc[nH]c2c1)N[C@@H]1C[C@H]1c1ccccc1 [Compound 214],1 to 5
2,O=C(Nc1cc(F)cc(C(F)(F)F)c1)Nc1ccc2cc[nH]c2c1 [Compound 252],0.04 to 0.2
3,FC(F)(F)c1ccc2ccc(Nc3ccc4cc[nH]c4c3)nc2c1 [Compound 381],0.2 to 1
4,O=C(Nc1ccc(C(F)(F)F)cc1)Nc1cc(F)c2cc[nH]c2c1 [Compound 246],0.2 to 1
5,CC(C)(C)c1cc(NC(=O)Nc2ccc3cc[nH]c3c2)on1 [Compound 217],5 to 100
6,O=C(Nc1ccc(C(F)(F)F)cc1)Nc1cnc2cc[nH]c2c1 [Compound 111],0.2 to 1
7,CCCCC1CCC(NC(=O)Nc2ccc3cc(Cl)[nH]c3c2)CC1 (centres unmarked) [Compound 260],5 to 100
8,O=C(Nc1ccc(C(F)(F)F)cc1)Nc1ccc2c3c([nH]c2c1)CCCC3 [Compound 263],5 to 100
9,Cc1cc(NC(=O)Nc2ccc3cc[nH]c3c2)ccc1C#N [Compound 227],0.2 to 1
10,O=C(Nc1ccc(C(F)(F)F)cc1)Nc1ccc2cc[nH]c2c1 [Compound 101],0.04 to 0.2
11,O=C(Nc1ccc2cc[nH]c2c1)NC1CCc2ccc(C(F)(F)F)cc21 (centres unmarked) [Compound 181],1 to 5
12,O=C(NCc1cc(Cl)cc(C(F)(F)F)c1)Nc1ccc2cc[nH]c2c1 [Compound 205],0.2 to 1
13,O=C(Nc1cccc(S(=O)(=O)C(F)(F)F)c1)Nc1ccc2cc[nH]c2c1 [Compound 203],1 to 5
14,CCCCCCCCc1ccc(NC(=O)Nc2ccc3cc[nH]c3c2)cc1 [Compound 237],0.2 to 1
15,O=C(Nc1cc(Cl)cc(C(F)(F)F)c1)Nc1ccc2cc[nH]c2c1 [Compound 254],0.2 to 1
16,Cc1ccccc1CCNC(=O)Nc1ccc2cc[nH]c2c1 [Compound 212],1 to 5
17,O=C(Nc1ccc(C(F)(F)F)c(Cl)c1)Nc1ccc2cc[nH]c2c1 [Compound 244],0.2 to 1
18,"COc1nc(Nc2ccc3cc[nH]c3c2)ccc1F [Compound 391, N-(5-fluoro-6-methoxypyridin-2-yl)-1H-indol-6-amine]",5 to 100
19,C#Cc1ccc(NC(=O)Nc2ccc3cc[nH]c3c2)cc1 [Compound 152],0.2 to 1
20,O=C(Nc1ccc(OC2CC(F)(F)C2)nc1)Nc1ccc2cc[nH]c2c1 [Compound 248],0.2 to 1
21,O=C(Nc1ccc(C(F)(F)F)cc1)Nc1ccc2[nH]cc(NC(=O)Nc3ccc(C(F)(F)F)cc3)c2c1 [Compound 371],0.2 to 1
22,CC(C)CCNC(=O)Nc1ccc2cc[nH]c2c1 [Compound 215],1 to 5
23,O=C(Nc1cccc(S(=O)(=O)C(F)(F)F)c1)Nc1ccc2[nH]ccc2c1 [Compound 315],5 to 100
24,"c1cc2ccc(Nc3ccc4ccc(C5CCCCC5)cc4n3)cc2[nH]1 [Compound 389, 7-cyclohexyl-N-(1H-indol-6-yl)quinolin-2-amine]",1 to 5

# Same assay, conditions: 15 μM 2′3′cGAMP, 24h, numeric bounds
row,EC50 [µM],Compound
1,> 30,"c1cc2ccnc(Nc3ccc4cc[nH]c4c3)c2cn1 [Compound 415, N-(1H-indol-6-yl)-2,7-naphthyridin-1-amine]"
2,> 30,"CC(C)c1ccnc(Nc2ccc3cc[nH]c3c2)c1 [Compound 393, N-(4-isopropylpyridin-2-yl)-1H-indol-6-amine]"
3,> 30,"Cc1nc(Nc2ccc3cc[nH]c3c2)ccc1C#N [Compound 598, 6-((1H-indol-6-yl)amino)-2-methylnicotinonitrile]"
4,> 30,"c1cnc2ccnc(Nc3ccc4cc[nH]c4c3)c2c1 [Compound 478, N-(1H-indol-6-yl)-1,6-naphthyridin-5-amine]"
5,> 30,"COc1ccc(Nc2ccc3cc[nH]c3c2)nc1C [Compound 599, N-(5-methoxy-6-methylpyridin-2-yl)-1H-indol-6-amine]"

# The next lines start with the compound.
row,Compound,EC50 [µM]
1,CCn1cc(CNC(=O)Nc2ccc3cc[nH]c3c2)cn1 [Compound 180],> 30
2,O=C(NCCc1ccccc1Br)Nc1ccc2cc[nH]c2c1 [Compound 184],> 30
3,O=C(Nc1ccc2nc(C(F)(F)F)ccc2c1)Nc1ccc2[nH]ccc2c1 [Compound 287],> 30
4,N#Cc1ccc(OC2CCC(NC(=O)Nc3ccc4[nH]ccc4c3)CC2)cc1 (centres unmarked) [Compound 308],> 30
5,O=C(Nc1ccc2[nH]ccc2c1)NC1Cc2ccccc2C1 [Compound 357],> 30
6,O=C(Nc1cccc(S(=O)(=O)N2CCCC2)c1)Nc1ccc2[nH]ccc2c1 [Compound 282],> 30
7,CCCCCCCCCCCCCCCCNC(=O)Nc1ccc2[nH]ccc2c1 [Compound 348],> 30
8,Cc1cc(NC(=O)Nc2ccc(C(F)(F)F)cc2)cc2c1ccn2-c1cn[nH]c1 [Compound 156],> 30
9,Cc1ccc(CNC(=O)Nc2ccc3[nH]ccc3c2)cc1C [Compound 337],> 30
10,O=C(Nc1ccc2[nH]ccc2c1)Nc1ccccc1Cl [Compound 362],> 30
11,N#Cc1cc(F)cc(NC(=O)Nc2ccc3cc[nH]c3c2)c1 [Compound 193],> 30
12,CC1(CNC(=O)Nc2ccc3cc[nH]c3c2)CCC(F)(F)CC1 [Compound 171],> 30
13,N#Cc1c[nH]c2ccc(NC(=O)Nc3ccc(C(F)(F)F)cc3)cc12 [Compound 373],> 100
